Measured values: patent US20260285888A1, “HETEROCYCLIC COMPOUND AND USE THEREOF” (OTSUKA PHARMACEUTICAL CO., LTD., priority 2023, published 2026)

Experiments:
[1] = Study for confirmation of conversion to brexpiprazole in a buffer (stability of the evaluation compounds); format: physicochemical; conditions: in buffer, average of duplicate; for Concentration of brexpiprazole formed: 60-minute reaction sample; for Concentration of evaluation compound decreased: decrease in 60-minute vs 0-minute reaction sample
How it was run: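 Compounds (final 1 μmol/L, from 100 μmol/L working solutions) incubated in buffer at 37° C. for 0 or 60 min, in duplicate, after 3 min pre-incubation of the reaction solution. Reactions stopped with acetonitrile/isopropanol (4:1) containing internal standards; compound and formed brexpiprazole quantified against 0.01–1 μmol/L calibration samples.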

in vitro = format: cell-based, human; conditions: human, differentiated hl-60 cells, 300 μmol/L, about 24 hours, PMA-differentiated HL-60 cells, LDH; no-treatment 0%, cell lysis buffer 100%; read-out: cytotoxicity (%) Evaluation compound results
How it was run: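 Cytotoxicity (%) from supernatant LDH activity after ~24 h treatment at 300 μmol/L final, normalised to no-treatment (0%) and lysis buffer (100%). Cells were PMA-differentiated (10 nM, ~72 h) HL-60 in 2% FBS medium; triplicate means.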

| SMILES | Concentration of brexpiprazole formed [1] | Concentration of evaluation compound decreased [1] | cytotoxicity at 24 h, 300 µM (in vitro) |
| --- | --- | --- | --- |
| CCOC(=O)C[C@@H](OP(=O)([O-])OC[N+]1(CCCCOc2ccc3ccc(=O)[nH]c3c2)CCN(c2cccc3sccc23)CC1)C(=O)OCC [EX 111, (R)-(4-(benzo[b]thiophen-4-yl)-1-(4-((2-oxo-1,2-dihydroquinolin-7-yl)oxy)butyl)piperazin-1-ium-1-yl)methyl (1,4-diethoxy-1,4-dioxobutan-2-yl) phosphate] | 0.00 µM | 0.02 µM | 0% |
| CC(=O)Oc1ccccc1C(=O)OCOP(=O)([O-])OC[N+]1(CCCCOc2ccc3ccc(=O)[nH]c3c2)CCN(c2cccc3sccc23)CC1 [EX 80, (2-acetoxybenzoyl)oxy)methyl ((4-(benzo[b]thiophen-4-yl)-1-(4-((2-oxo-1,2-dihydroquinolin-7-yl)oxy)butyl)piperazin-1-ium-1-yl)methyl) phosphate] | 0.00 µM | 0.17 µM | 7% |
| CCC(CC)COC(=O)[C@@H](C)OP(=O)([O-])OC[N+]1(CCCCOc2ccc3ccc(=O)[nH]c3c2)CCN(c2cccc3sccc23)CC1 [EX 108, (R)-(4-(benzo[b]thiophen-4-yl)-1-(4-((2-oxo-1,2-dihydroquinolin-7-yl)oxy)butyl)piperazin-1-ium-1-yl)methyl (1-(2-ethylbutoxy)-1-oxopropan-2-yl) phosphate] | 0.00 µM | 0.08 µM | -7% |
| O=c1ccc2ccc(OCCCC[N+]3(COP(=O)([O-])OCCCCCCCCO)CCN(c4cccc5sccc45)CC3)cc2[nH]1 [EX 11, (4-(benzo[b]thiophen-4-yl)-1-(4-((2-oxo-1,2-dihydroquinolin-7-yl)oxy)butyl)piperazin-1-ium-1-yl)methyl (8-hydroxyoctyl) phosphate] | 0.00 µM | 0.03 µM | 16% |
| COCCCOC(=O)OCOP(=O)([O-])OC[N+]1(CCCCOc2ccc3ccc(=O)[nH]c3c2)CCN(c2cccc3sccc23)CC1 [EX 139, (4-(benzo[b]thiophen-4-yl)-1-(4-((2-oxo-1,2-dihydroquinolin-7-yl)oxy)butyl)piperazin-1-ium-1-yl)methyl ((((3-methoxypropoxy)carbonyl)oxy)methyl) phosphate] | 0.00 µM | 0.12 µM | -4% |
| O=c1ccc2ccc(OCCCC[N+]3(COP(=O)([O-])OCCCCCCCCCO)CCN(c4cccc5sccc45)CC3)cc2[nH]1 [EX 46, (4-(benzo[b]thiophen-4-yl)-1-(4-((2-oxo-1,2-dihydroquinolin-7-yl)oxy)butyl)piperazin-1-ium-1-yl)methyl (9-hydroxynonyl) phosphate] | 0.00 µM | 0.04 µM | 14% |
| CC(C)COP(=O)([O-])OC[N+]1(CCCCOc2ccc3ccc(=O)[nH]c3c2)CCN(c2cccc3sccc23)CC1 [EX 90, (4-(benzo[b]thiophen-4-yl)-1-(4-(2-oxo-1,2-dihydroquinolin-7-yl)oxy)butyl)piperazin-1-ium-1-yl)methyl isobutyl phosphate] | 0.00 µM | -0.03 µM | -6% |
| CCOCCCOP(=O)([O-])OC[N+]1(CCCCOc2ccc3ccc(=O)[nH]c3c2)CCN(c2cccc3sccc23)CC1 [EX 97, (4-(benzo[b]thiophen-4-yl)-1-(4-((2-oxo-1.2-dihydroquinolin-7-yl)oxy)butyl)piperazin-1-ium-1-yl)methyl (3-ethoxypropyl) phosphate] | 0.00 µM | 0.09 µM | -2% |
| CC(C)OC(=O)[C@@H](C)OP(=O)([O-])OC[N+]1(CCCCOc2ccc3ccc(=O)[nH]c3c2)CCN(c2cccc3sccc23)CC1 [EX 105, (R)-(4-(benzo[b]thiophen-4-yl)-1-(4-((2-oxo-1,2-dihydroquinolin-7-yl)oxy)butyl)piperazin-1-ium-1-yl)methyl (1-isopropoxy-1-oxopropan-2-yl) phosphate] | 0.00 µM | 0.05 µM | -6% |
| CC(C)(CC(=O)O)CC(=O)OCOP(=O)([O-])OC[N+]1(CCCCOc2ccc3ccc(=O)[nH]c3c2)CCN(c2cccc3sccc23)CC1 [EX 71] | 0.00 µM | 0.10 µM | -9% |
| CC(C)(O)CCOP(=O)([O-])OC[N+]1(CCCCOc2ccc3ccc(=O)[nH]c3c2)CCN(c2cccc3sccc23)CC1 [EX 41, (4-(benzo[b]thiophen-4-yl)-1-(4-((2-oxo-1,2-dihydroquinolin-7-yl)oxy)butyl)piperazin-1-ium-1-yl)methyl (3-hydroxy-3-methylbutyl) phosphate] | 0.00 µM | 0.07 µM | -3% |
| CC(C)(C)OC(=O)CNP(=O)([O-])OC[N+]1(CCCCOc2ccc3ccc(=O)[nH]c3c2)CCN(c2cccc3sccc23)CC1 [EX 155, (4-(benzo[b]thiophen-4-yl)-1-(4-((2-oxo-1,2-dihydroquinolin-7-yl)oxy)butyl)piperazin-1-ium-1-yl)methyl (2-(tert-butoxy)-2-oxoethyl)phosphoramidate] | 0.00 µM | 0.16 µM | -3% |
| CC(C)OC(=O)[C@H](C)NP(=O)([O-])OC[N+]1(CCCCOc2ccc3ccc(=O)[nH]c3c2)CCN(c2cccc3sccc23)CC1 [EX 159, (4-(benzo[b]thiophen-4-yl)-1-(4-((2-oxo-1,2-dihydroquinolin-7-yl)oxy)butyl)piperazin-1-ium-1-yl)methyl (S)-(1-isopropoxy-1-oxopropan-2-yl)phosphoramidate] | 0.00 µM | 0.06 µM | -1% |
| CC(C)OCCOC(=O)OCOP(=O)([O-])OC[N+]1(CCCCOc2ccc3ccc(=O)[nH]c3c2)CCN(c2cccc3sccc23)CC1 [EX 133, (4-(benzo[b]thiophen-4-yl)-1-(4-((2-oxo-1,2-dihydroquinolin-7-yl)oxy)butyl)piperazin-1-ium-1-yl)methyl ((((2-isopropoxyethyloxy)carbonyl)oxy)methyl) phosphate] | 0.00 µM | 0.14 µM | -5% |
| CC1(C)OCC(C(=O)OCOP(=O)([O-])OC[N+]2(CCCCOc3ccc4ccc(=O)[nH]c4c3)CCN(c3cccc4sccc34)CC2)CO1 [EX 67, (4-(benzo[b]thiophen-4-yl)-1-(4-((2-oxo-1,2-dihydroquinolin-7-yl)oxy)butyl)piperazin-1-ium-1-yl)methyl (((2,2-dimethyl-1,3-dioxane-5-carbonyl)oxy)methyl) phosphate] | 0.00 µM | 0.09 µM | 1% |
| COCCOP(=O)([O-])OC[N+]1(CCCCOc2ccc3ccc(=O)[nH]c3c2)CCN(c2cccc3sccc23)CC1 [EX 12, (4-(benzo[b]thiophen-4-yl)-1-(4-((2-oxo-1,2-dihydroquinolin-7-yl)oxy)butyl)piperazin-1-ium-1-yl)methyl (2-methoxyethyl) phosphate] | 0.00 µM | 0.02 µM | -7% |
| O=C(CCCCCO)OCOP(=O)([O-])OC[N+]1(CCCCOc2ccc3ccc(=O)[nH]c3c2)CCN(c2cccc3sccc23)CC1 [EX 126, (4-(benzo[b]thiophen-4-yl)-1-(4-((2-oxo-1,2-dihydroquinolin-7-yl)oxy)butyl)piperazin-1-ium-1-yl)methyl (6-hydroxyhexanoyl)oxy)methyl) phosphate] | 0.00 µM | 0.16 µM | -7% |
| O=c1ccc2ccc(OCCCC[N+]3(COP(=O)([O-])OCCCCCCO)CCN(c4cccc5sccc45)CC3)cc2[nH]1 [EX 44, (4-(benzo[b]thiophen-4-yl)-1-(4-((2-oxo-1,2-dihydroquinolin-7-yl)oxy)butyl)piperazin-1-ium-1-yl)methyl (6-hydroxyhexyl) phosphate] | 0.00 µM | -0.05 µM | -8% |
| CC(C)OC(=O)OCOP(=O)([O-])OC[N+]1(CCCCOc2ccc3ccc(=O)[nH]c3c2)CCN(c2cccc3sccc23)CC1 [EX 130, (4-(benzo[b]thiophen-4-yl)-1-(4-((2-oxo-1,2-dihydroquinolin-7-yl)oxy)butyl)piperazin-1-ium-1-yl)methyl (isopropoxycarbonyl)oxy)methyl) phosphate] | 0.00 µM | -0.02 µM | 1% |
| O=c1ccc2ccc(OCCCC[N+]3(COP(=O)([O-])OCC4(CO)CC4)CCN(c4cccc5sccc45)CC3)cc2[nH]1 [EX 47, (4-(benzo[b]thiophen-4-yl)-1-(4-((2-oxo-1,2-dihydroquinolin-7-yl)oxy)butyl)piperazin-1-ium-1-yl)methyl ((1-(hydroxymethyl)cyclopropyl)methyl) phosphate] | 0.00 µM | 0.00 µM | -5% |
